Values quoted from earlier work in patent US20040086873A1, “System and method of generating and storing correlated hyperquantified tissue structure and biomolecular expression datasets” (priority 2002, published 2004).

Details: 1000 mg/kg/day, intraperitoneal injection once a day, dissolved in corn oil (~15% v/v)

ClC(Cl)(Cl)Cl [CC14]
toxicity of the dose level (hepatotoxic / lethal): hepatotoxic but not lethal
